From patent US5371102A, “Compositions and methods of inhibiting thyroid activity” (priority 1993, dated 1994) come the findings set out here.

Series [1] can be described thus: kinetics of thione oxygenation by hydrogen peroxide/TFA. In kind it is physicochemical. The conditions noted are these: thione 25 μM, H2O2 34 mM, TFA 163 mM in methanol, 25° C.; relative to DMMBI. The procedure: The kinetics of thione oxygenation were determined for MBI, MMBI and DMMBI. Oxygenation by hydrogen peroxide/TFA was measured spectrophotometrically (305 nm) at 25° C. by addition of thione (final concentration 25 μM) to hydrogen peroxide (34 mM) and TFA (163 mM) in methanol.

A further series addresses T1, LPX (Bos taurus, UniProt P80025).
T1 construct: purchased Sigma Chemical Company
In words: LPX-mediated oxidative turnover of DMMBI and hydroperoxide. In kind it is biochemical, bovine. From the text:
(§1) Materials used in the examples below were obtained from the following sources. Bovine LPX, bovine liver catalase, glucose oxidase, 30% hydrogen peroxide, glucose, guaiacol, ABTS and deuterium oxide were purchased from Sigma Chemical Company. Selenium dioxide, MBI ^13 CH3 I and PBA were purchased from Aldrich Chemical Company and PBA was purified as previously described by Fieset et al., Reagents for Organic Synthesis, Vol. I, pp.135-139, John Wiley and Sons, N.Y. (1967). LPX purity was checked by PAGE, as described by Doerge, D.R., et al. in, Biochem. Pharmacol., Vol.36, pp.972-974 (1986). TPX was purified from hog thyroids obtained from a local slaughterhouse by published procedures. Doerge & Takazowa, Chemical Research in Toxicology, Vol. 3, pp. 98-101 (1990). TPX purity was determined by LC and its concentration determined spectophotometrically. Hydroperoxide concentrations were determined by iodometric titration, as described by Kolthoff, et al., in "Quantitative Chemical Analysis", Macmillan, London, pp.842-860 (1969). MMBI, and BI were synthesized by published procedures as described by Doerge, D.R., Biochem, Vol. 27, pp. 3697-3700 (1988) and were recrystallized from aqueous ethanol. MeBI was purified by distillation and DMeBI^+ was synthesized and purified by recrystallization from ethyl acetate/methanol. 1-^13 C-MMBI was synthesized from ^13 CH3 I according to the procedure disclosed by Doerge, D.R., in, J. Lab. Comp. and Radiopharm., Vol.25, pp.985-990 (1988). PPHP and PPA were prepared, purified and analyzed as previously described by Doerge, Biochem, Vol.27, p.11 (1988). The methyl ester of 1-methyl-benzimidazole-2-sulfinic acid was prepared by addition of hydrogen peroxide (5 equivalents of a 10 M solution) to MMBI (0.1 M) in methanol. The products, MeBI and the ester, were obtained following preparative TLC on silica (Uniplate, Analtech Co., Newark, DL) using 5% methanol/chloroform as eluant.
The distinct methyl and aromatic proton resonances of DMMBI and DMeBI^+ in the ^1 H-NMR spectrum provide a sensitive method to detect enzymatic transformation of DMMBI. DMMBI (100 μM) was incubated with LPX (50 μM), iodide ion (5 mM) and hydrogen peroxide (300 μM) in 10 mls of 0.01 M phosphate buffer solution, pH 7.0. The solution was incubated at 25° C. for 1 min followed by addition of catalase. The sample was then lyophilized and analyzed by ^1 H-NMR. The solids were dissolved in 1 ml D2 O and lyophilized again. Proton-deuterium exchange was repeated twice more and the solids were dissolved in 0.5 ml D2 O containing DSS. The HOD peak was suppressed in a one pulse presaturation experiment where the HOD peak was irradiated for 2 sec prior to acquisition of sample resonances. The ^1 H-NMR spectra of DMeBI^+ and DMMBI were similarly recorded in D2 O.
PPHP is a chromophoric hydroperoxide interchangeable with hydrogen peroxide in many peroxidase-catalyzed reactions. LPX-catalyzed turnover of PPHP gives PPA, the corresponding alcohol, which can be quantitated by HPLC. The use of PPHP permits a direct correlation of LPX-catalyzed substrate consumption and product formation with actual hydroperoxide turnover.

For another series, the target named is T2, TPX (Sus scrofa, UniProt P09933).
T2 sequence (P09933 15-926): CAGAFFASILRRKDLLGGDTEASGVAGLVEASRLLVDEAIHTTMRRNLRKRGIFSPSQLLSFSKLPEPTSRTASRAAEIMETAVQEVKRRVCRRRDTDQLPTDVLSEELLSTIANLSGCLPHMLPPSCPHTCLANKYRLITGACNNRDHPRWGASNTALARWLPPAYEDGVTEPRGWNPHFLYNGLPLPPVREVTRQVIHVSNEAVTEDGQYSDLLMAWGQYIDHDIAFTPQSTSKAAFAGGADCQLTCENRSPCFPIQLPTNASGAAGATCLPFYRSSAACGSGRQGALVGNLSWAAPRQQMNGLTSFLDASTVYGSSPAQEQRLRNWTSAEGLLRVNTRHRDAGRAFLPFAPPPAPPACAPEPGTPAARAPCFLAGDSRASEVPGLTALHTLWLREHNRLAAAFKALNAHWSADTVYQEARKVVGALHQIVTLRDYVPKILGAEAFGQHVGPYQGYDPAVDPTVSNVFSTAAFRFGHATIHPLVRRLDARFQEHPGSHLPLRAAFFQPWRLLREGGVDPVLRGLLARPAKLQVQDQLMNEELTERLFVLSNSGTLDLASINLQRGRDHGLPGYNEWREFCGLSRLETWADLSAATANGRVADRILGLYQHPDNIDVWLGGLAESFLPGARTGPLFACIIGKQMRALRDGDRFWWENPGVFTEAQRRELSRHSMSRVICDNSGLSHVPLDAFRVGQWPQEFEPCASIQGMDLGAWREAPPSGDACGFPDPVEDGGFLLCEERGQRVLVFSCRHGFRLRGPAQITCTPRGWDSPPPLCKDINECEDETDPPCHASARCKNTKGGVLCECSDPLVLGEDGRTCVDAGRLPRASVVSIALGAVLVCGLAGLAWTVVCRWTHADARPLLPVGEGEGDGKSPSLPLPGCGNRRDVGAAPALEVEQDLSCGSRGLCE
In words: TPX/hydrogen peroxide-catalyzed oxidation of ABTS and guaiacol. The series is classed as biochemical, hog.
Excerpt: as §1, with “MeBI was purified by distillation and DMeBI^+ was synthesized and purified by recrystallization from ethyl acetate/methanol. 1-^13 C-MMBI was synthesized from ^13 CH3 I according to the procedure disclosed by Doerge, D.R., in, J. Lab. Comp. and Radiopharm., Vol.25, pp.985-990 (1988).” left out, “The methyl ester of 1-methyl-benzimidazole-2-sulfinic acid was prepared by addition of hydrogen peroxide (5 equivalents of a 10 M solution) to MMBI (0.1 M) in methanol. The products, MeBI and the ester, were obtained following preparative TLC on silica (Uniplate, Analtech Co., Newark, DL) using 5% methanol/chloroform as eluant.” left out

[2] abbreviates: PPHP-supported LPX-catalyzed iodination.

With `Cn1c(=S)n(C)c2ccccc21` [DMMBI, 1,3-dimethylbenzimidazole-2-thione], the “relative rate of oxygenation” value in series [1] is recorded as 1. In addition, the “conversion of DMMBI to DMeBI+” value at LPX (LPX, 3 equivalents H2O2 and iodide ion) is “quantitative conversion of DMMBI to DMeBI^+”. The “turnover events without LPX inactivation” value on LPX (LPX, hydrogen peroxide and iodide ion) is on record as more than 300 turnover events. Besides, at LPX (setting [2]), the “moles of PPA formed per mole of DMMBI consumed” value turned out to be 3.2 ± 0.2 mol and the “moles of PPHP consumed per mole of DMMBI consumed” value is 3.2 mol. For the same compound, on LPX (controls: no iodide ion, no LPX or no hydrogen peroxide), the “conversion of DMMBI to DMeBI+” value is listed as “no conversion of DMMBI to DMeBI^+ was observed”. In addition, the “effect on oxidation of ABTS and guaiacol” value at TPX was “does not affect LPX or TPX/hydrogen peroxide-catalyzed oxidation of the substrates ABTS and guaiacol”.
